Patent US20250136576A1, “Heterocyclic Compounds and Uses Thereof” (ACEA Therapeutics, Inc., priority 2021, published 2025)

test system: KM12-luc cells; test: Cell proliferation and growth inhibition assay (CCK-8) in KM12-luc; type: cell-based; settings: KM12-Luc, 72 h, KM12-luc cells, treated with test compounds for 72 hrs, CCK-8 viability; read-out: NTRK IC50 in KM12-luc
How it was run: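 Cells were grown at 37 °C, 5% CO2 with 10% FBS: MV-4-11 in IMDM, H1975 in RPMI 1640, KM12-luc in DMEM. Viability was read by CCK-8 (1-4 hrs reagent incubation, absorbance at OD450). IC50 came from a non-linear sigmoidal dose-response fit.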

Q: For `CCN(CCN(C)C)c1ccc(Nc2ncc(C(F)(F)F)c(-c3c[nH]c4c(F)cccc34)n2)cc1NC(C)=O` [Compound 336, N-(2-((2-(dimethylamino)ethyl)(ethyl)amino)-5-((4-(7-fluoro-1H-indol-3-yl)-5-(trifluoromethyl)pyrimidin-2-yl)amino)phenyl)acetamide], which IC50 is on record?
A: 64.8 nM

Q: Which IC50 does the source give for `CC(=O)Nc1cc(Nc2ncc(Cl)c(-c3c[nH]c4ccccc34)n2)cc(F)c1N(C)CCN(C)C` [Compound 441, N-(5-((5-chloro-4-(1H-indol-3-yl)pyrimidin-2-yl)amino)-2-((2-(dimethylamino)ethyl)(methyl)amino)-3-fluorophenyl)acetamide] here?
A: 24.9 nM

Q: For `COc1cnc(-n2cc(-c3nc(Nc4ccc(N(C)CCN(C)C)c(NC(C)=O)c4)ncc3OC)c3ccccc32)nc1-c1c[nH]c2ccccc12` [Compound 272b, N-(5-(4-(1-(4-(1H-indol-3-yl)-5-methoxypyrimidin-2-yl)-1H-indol-3-yl)-5-methoxypyrimidin-2-ylamino)-2-((2-(dimethylamino)ethyl)(methyl)amino)phenyl)acetamide], which IC50 is on record?
A: 2060 nM

Q: How did the IC50 turn out when `CC(=O)Nc1cc(Nc2ncc(C(F)(F)F)c(-c3cn(C)c4c(C)cccc34)n2)ccc1N(CCN(C)C)C(C)=O` [Compound 370, N-(2-acetamido-4-((4-(1,7-dimethyl-1H-indol-3-yl)-5-(trifluoromethyl)pyrimidin-2-yl)amino)phenyl)-N-(2-(dimethylamino)ethyl)acetamide] was run?
A: 77.1 nM

Q: Which IC50 does the source give for `Cc1nc2cc(Nc3ncc(Cl)c(-c4cn(C)c5ccccc45)n3)ccc2n1CCN(C)C` [Compound 400b, N-(5-chloro-4-(1-methyl-1H-indol-3-yl)pyrimidin-2-yl)-1-(2-(dimethylamino)ethyl)-2-methyl-1H-benzo[d]imidazol-5-amine] here?
A: 71.5 nM

Q: With `CCN(CCN(C)C)c1ccc(Nc2nc(-c3cn(C)c4ccccc34)c3cc[nH]c3n2)cc1N` [Compound 211, N^1-(2-(dimethylamino)ethyl)-N^1-ethyl-N^4-(4-(1-methyl-1H-indol-3-yl)-7H-pyrrolo[2,3-d]pyrimidin-2-yl)benzene-1,2,4-triamine] as the compound, how does the IC50 read?
A: 40.3 nM

Q: How did the IC50 turn out when `CN(C)CCN(C)c1ccc(Nc2ncc(C(F)(F)F)c(-c3cn(C)c4ccc(F)cc34)n2)cc1NCC(F)(F)F` [Compound 327, N^1-(2-(dimethylamino)ethyl)-N^4-(4-(5-fluoro-1-methyl-1H-indol-3-yl)-5-(trifluoromethyl)pyrimidin-2-yl)-N^1-methyl-N^2-(2,2,2-trifluoroethyl)benzene-1,2,4-triamine] was run?
A: 260 nM

Q: How did the IC50 turn out when `CCN(CCN(C)C)c1c(F)cc(Nc2nc(-c3cn(C)c4ccccc34)c3ccn(C)c3n2)cc1NC(C)=O` [Compound 195b, N-(2-((2-(dimethylamino)ethyl)(ethyl)amino)-3-fluoro-5-((7-methyl-4-(1-methyl-1H-indol-3-yl)-7H-pyrrolo[2,3-d]pyrimidin-2-yl)amino)phenyl)acetamide] was run?
A: 561 nM

Q: For `COc1cnc(Nc2ccc(N3CC[C@@H](N(C)C)C3)c(NC(C)=O)c2)nc1-c1c[nH]c2c(OC)cccc12` [Compound R-288, (R)—N-(2-(3-(dimethylamino)pyrrolidin-1-yl)-5-((5-methoxy-4-(7-methoxy-1H-indol-3-yl)pyrimidin-2-yl)amino)phenyl)acetamide], which IC50 is on record?
A: 15.5 nM

Q: With `COc1cccc2c(-c3nc(Nc4ccc(N(C)CCN(C)C)c(N)c4)ncc3Cl)cn(C)c12` [Compound 437, N^4-(5-chloro-4-(7-methoxy-1-methyl-H-indol-3-yl)pyrimidin-2-yl)-N^1-(2-(dimethylamino)ethyl)-N^1-methylbenzene-1,2,4-triamine] as the compound, how does the IC50 read?
A: 109 nM

same assay, conditions: KM12-luc cells, treated with test compounds for 72 hrs, CCK-8 viability; read-out: NTRK IC50 in KM12-luc

Q: Which IC50 does the source give for `CC(=O)Nc1cc(Nc2nc(-c3cn(C)nc3C)c3cc[nH]c3n2)ccc1N(C)CCN(C)C` [Compound 255b, N-(5-(4-(1,3-dimethyl-1H-pyrazol-4-yl)-7H-pyrrolo[2,3-d]pyrimidin-2-ylamino)-2-((2-(dimethylamino)ethyl)(methyl)amino)phenyl)acetamide] here?
A: > 10000 nM
